Data published in US9456619B1, “Control of caloric intake” (priority 2000, dated 2016).

Assays:
[1] = flavored liquid food, ad libitum; cited from earlier work
[2] = rats, liquid diet ad libitum; effect appeared after first week; cited from earlier work
[3] = Excerpt: To find out, a few days later I began drinking much more water than usual.
I was already measuring my weight regularly. I used three scales, to ensure that any weight change was not due to a changing scale.

CC(=O)OC[C@H]1O[C@@](COC(C)=O)(O[C@H]2O[C@H](COC(C)=O)[C@@H](OC(C)=O)[C@H](OC(C)=O)[C@H]2OC(C)=O)[C@@H](OC(C)=O)[C@@H]1OC(C)=O [sucrose octaacetate]
weight gain versus rats eating unflavored solid food [1]: gained more weight

O=C1NS(=O)(=O)c2ccccc21 [saccharin]
weight gain versus same food without saccharin [2]: gained more weight

O [water]
weight rise ([3]; after reducing water intake from 5 to 3 liters/day): about 0.7 kg
weight lost ([3]; water intake raised to 5 liters/day, over two weeks before weight stabilized): about 2.8 kg
